Results reported in patent publication US20260234147A1 (priority 2023, published 2026).
Like-named read-outs stand apart in the source and are kept apart here.

Assays:
hKOR = hKOR (Homo sapiens, UniProt P41145); experiment: Radioligand binding assay (Eurofins Cerep), [3H]U69,593 displacement; details: read-out: KOR Ki ± SEM
hMOR [1] = target: T1, hMOR (Homo sapiens, UniProt P35372); experiment: Cyclic adenosine 3′,5′-monophosphate (cAMP) assay in hMOR-CHO cells; assay type: cell-based; details: N=1, control agonist DAMGO
α2A adrenergic receptor = target: T2, α2A adrenergic receptor (Homo sapiens, UniProt P08913); experiment: Radioligand binding assay (Eurofins Cerep), [3H]RX 821002 displacement
T2 construct: Eurofins Cerep (contract screening)
T2 sequence (P08913 1-465): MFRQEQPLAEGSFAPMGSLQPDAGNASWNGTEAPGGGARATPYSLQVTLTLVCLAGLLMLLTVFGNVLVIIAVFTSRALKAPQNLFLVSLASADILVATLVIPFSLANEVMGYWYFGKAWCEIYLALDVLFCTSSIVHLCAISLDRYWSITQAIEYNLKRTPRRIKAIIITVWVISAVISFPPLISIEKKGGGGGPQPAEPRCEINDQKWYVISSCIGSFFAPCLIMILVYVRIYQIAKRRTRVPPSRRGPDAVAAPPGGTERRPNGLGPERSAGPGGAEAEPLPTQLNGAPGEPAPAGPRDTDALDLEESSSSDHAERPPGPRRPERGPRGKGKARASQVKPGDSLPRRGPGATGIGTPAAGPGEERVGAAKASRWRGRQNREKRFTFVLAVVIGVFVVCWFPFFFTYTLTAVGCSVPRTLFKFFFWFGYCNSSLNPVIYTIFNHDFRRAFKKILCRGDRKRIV

α2C adrenergic receptor = target: T3, α2C adrenergic receptor (Homo sapiens, UniProt P18825); experiment: as above; details: Table A1, data summary #1; read-out: Alpha2C Ki ± SEM
T3 construct: Eurofins Cerep (contract screening)
T3 sequence (P18825 1-462): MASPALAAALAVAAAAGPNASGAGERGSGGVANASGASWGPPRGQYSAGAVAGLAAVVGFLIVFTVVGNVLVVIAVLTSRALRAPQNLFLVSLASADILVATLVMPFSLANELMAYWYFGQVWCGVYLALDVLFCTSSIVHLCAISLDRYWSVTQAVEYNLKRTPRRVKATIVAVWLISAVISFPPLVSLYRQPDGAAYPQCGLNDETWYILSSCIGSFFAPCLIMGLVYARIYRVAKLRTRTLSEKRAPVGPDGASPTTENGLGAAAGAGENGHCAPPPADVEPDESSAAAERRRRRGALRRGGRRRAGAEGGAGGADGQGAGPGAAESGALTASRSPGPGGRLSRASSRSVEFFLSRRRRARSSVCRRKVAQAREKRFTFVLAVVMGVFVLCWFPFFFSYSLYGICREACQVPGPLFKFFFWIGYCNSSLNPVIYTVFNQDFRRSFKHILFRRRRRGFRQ

[2] = Metabolic stability in rat liver microsomes; assay type: in vitro ADME; details: for RLM stability: rat liver microsomes 1 mg/ml, substrate 1 μM, NADPH, 37° C.
Protocol: In vitro metabolic stability of each compound was determined using rat liver microsomes in triplicate. Verapamil was used as a positive control to check the activity of the microsomes. The incubation mixtures consisted of rat liver microsomes (1 mg microsomal protein/ml), substrate (1 μM), and reduced NADPH (1 mM) in a total volume of 0.4 ml potassium phosphate buffer (50 mM, pH 7.4). Reactions were initiated with the addition of NADPH and kept in an incubator shaker at 37° C. Aliquots of 25 μl were withdrawn at 0, 5, 10, 15, 30, and 60 min and mixed with 125 μl of acetonitrile with formic acid (0.1% v/v) containing phenacetin (50 ng/ml; internal standard) for the termination of the reaction. The samples were then vortex mixed and filtered through a […] 96-well membrane filtration plate under centrifugation at speed of 2000×g for 5 min at 4° C. The filtrates were subjected to UPLC-mass spectrometry (MS/MS) analysis.
The intrinsic clearance of the compounds was calculated using a half-life employing the ‘substrate depletion’ approach. The apparent half-life was calculated from the pseudo-first-order rate constants obtained by linear regression of log (concentration) and time plots. The in vitro intrinsic clearance of IFN was estimated using the formula: […]
Where k is the slope of the line obtained by plotting the natural logarithmic of the percentage of parent remaining versus time and V is the volume of incubation.
The in vitro intrinsic clearance was scaled to whole-organ (hepatic) in vivo intrinsic CL (CLint,H) using the scaling factors available in the literature using equation (Mahmood I. Application of allometric principles for the prediction of pharmacokinetics in human and veterinary drug development. Advanced drug delivery reviews, 2007, 59(11), 1177-1192)
MPPGL represents the microsomal protein per gram of Sprague Dawley rat liver (45 mg/g) and liver weight per kg body weight was 40 g/kg.

hDOR = hDOR (Homo sapiens, UniProt P41143); experiment: Radioligand binding assay (Eurofins Cerep), [3H]DADLE displacement
hMOR [3] = target: T1, hMOR; experiment: cell-based; parameters: expressed in transfected cells; details: for Emax: CHO
hMOR [4] = target: T1, hMOR; experiment: Radioligand binding assay (Eurofins Cerep), [3H]DAMGO displacement
[5] = Alpha2A Ki ± SEM (nM), Table A4, data summary #2
[6] = DOR Ki ± SEM (nM), Table A1, data summary #1
[7] = DOR Ki ± SEM (nM), Table A4, data summary #2
[8] = Table A4, data summary #2, read-out: MOR Ki ± SEM

T1 sequence (P35372 whole entry): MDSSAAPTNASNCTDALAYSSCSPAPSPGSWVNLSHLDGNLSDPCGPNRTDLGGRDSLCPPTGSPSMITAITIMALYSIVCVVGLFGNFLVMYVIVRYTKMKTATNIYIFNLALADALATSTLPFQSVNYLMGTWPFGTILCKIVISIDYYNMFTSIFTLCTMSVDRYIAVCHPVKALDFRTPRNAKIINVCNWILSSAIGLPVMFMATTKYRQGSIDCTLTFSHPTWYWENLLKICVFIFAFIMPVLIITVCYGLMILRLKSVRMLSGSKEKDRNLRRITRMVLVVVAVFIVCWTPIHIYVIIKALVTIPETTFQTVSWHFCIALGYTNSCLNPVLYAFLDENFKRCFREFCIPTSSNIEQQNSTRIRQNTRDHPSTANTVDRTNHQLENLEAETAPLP
hKOR, sequence (P41145 whole entry): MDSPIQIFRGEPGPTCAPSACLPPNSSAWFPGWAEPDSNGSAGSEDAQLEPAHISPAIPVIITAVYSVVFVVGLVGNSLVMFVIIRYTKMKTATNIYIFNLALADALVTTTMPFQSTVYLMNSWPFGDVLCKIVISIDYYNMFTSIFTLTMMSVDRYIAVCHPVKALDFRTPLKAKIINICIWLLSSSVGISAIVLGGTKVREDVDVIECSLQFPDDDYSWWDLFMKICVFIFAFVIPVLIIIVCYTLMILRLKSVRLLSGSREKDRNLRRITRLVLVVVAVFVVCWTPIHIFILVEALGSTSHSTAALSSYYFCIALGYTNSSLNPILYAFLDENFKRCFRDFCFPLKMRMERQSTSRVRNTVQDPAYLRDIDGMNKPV
hDOR, sequence (P41143 whole entry): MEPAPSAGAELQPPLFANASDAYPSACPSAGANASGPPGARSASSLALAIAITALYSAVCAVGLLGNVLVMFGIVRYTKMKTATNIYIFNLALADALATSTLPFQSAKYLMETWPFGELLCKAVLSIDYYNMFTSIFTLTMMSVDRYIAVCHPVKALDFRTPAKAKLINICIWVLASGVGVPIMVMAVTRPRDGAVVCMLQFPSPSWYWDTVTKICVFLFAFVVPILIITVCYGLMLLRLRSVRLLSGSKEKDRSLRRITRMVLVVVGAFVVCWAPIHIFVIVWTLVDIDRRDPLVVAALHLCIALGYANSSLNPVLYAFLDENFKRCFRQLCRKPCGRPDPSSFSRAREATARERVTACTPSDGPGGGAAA

| Structure (SMILES) | Ki (hKOR; Table A1, data summary #1) | Ki (hKOR; Table A4, data summary #2) | functional activity in cAMP assay (hMOR [1]) | Ki (α2A adrenergic receptor; [5]) | RLM stability [2] | Ki (hDOR; [6]) | Ki (hDOR; [7]) | Ki (hMOR [4]; [8]) | Ki (hMOR [4]; read-out: Ki at hMOR) | other results |
| --- | --- | --- | --- | --- | --- | --- | --- | --- | --- | --- |
| CC[C@@H]1CN2CCc3c([nH]c4cccc(OC)c34)[C@@H]2C[C@@H]1/C(=C\OC)C(=O)N(C)C [SUSM-501, (E)-2-((2S,3S,12bS)-3-ethyl-8-methoxy-1,2,3,4,6,7,12,12b-octahydroindolo[2,3-a]quinolizin-2-yl)-3-methoxy-N,N-dimethylacrylamide] | 3070 ± 569 nM | 3070 ± 569 nM | partial agonist activity | 1810 ± 319 nM | 6 min | 6490 ± 3030 nM | 6490 ± 3030 nM | 429 ± 75.7 nM | – | functional activity in cAMP assay (hMOR [1]; listed as SUSM 501): partial agonist; Ki (α2A adrenergic receptor; Alpha2A Ki ± SEM (nM), Table A1, data summary #1): 1810 ± 319 nM; Ki (α2C adrenergic receptor): 420 ± 113 nM; Whole liver clearance, CL int, H ([2]; in vitro intrinsic clearance in RLM scaled to whole organ (rat)): 128.8 mL/min/kg; functional character at MOR (hMOR [3]): partial antagonist; Emax (hMOR [3]; read-out: MOR Emax ± SEM (% DAMGO), Table A1, data summary #1): -4.05 ± 4.03%; Emax (hMOR [3]; read-out: Emax, functional activity at MOR): -4.05%; Ki (hMOR [4]; Table A1, data summary #1, read-out: MOR Ki ± SEM): 429 ± 75.7 nM |
| CC[C@@H]1CN2CCc3c([nH]c4cccc(OC)c34)[C@@H]2C[C@@H]1/C(=C\OC)C(=O)N(C)C1CCCCC1 [SUSM-523, (E)-N-cyclohexyl-2-((2S,3S,12bS)-3-ethyl-8-methoxy-1,2,3,4,6,7,12,12b-octahydroindolo[2,3-a]quinolizin-2-yl)-3-methoxy-N-methylacrylamide] | 2640 ± 685 nM | 1950 ± 611 nM | antagonists | 187 ± 29 nM | <5 min | 6490 ± 962 nM | 8290 ± 1020 nM | 49 ± 14 nM | 81.9 nM | functional activity in cAMP assay (hMOR [1]; listed as SUSM 523): antagonist |
| CC[C@@H]1CN2CC[C@@]3(O)C(=Nc4cccc(OC)c43)[C@@H]2C[C@@H]1/C(=C\OC)C(=O)N(C)C [SUSM-524, (E)-2-((2S,3S,7aS,12bS)-3-ethyl-7a-hydroxy-8-methoxy-1,2,3,4,6,7,7a,12b-octahydroindolo[2,3-a]quinolizin-2-yl)-3-methoxy-N,N-dimethylacrylamide] | 9150 ± 1100 nM | 9150 ± 1100 nM | agonist activity | – | <5 min | – | – | 90 ± 14 nM | 110 nM | functional activity in cAMP assay (hMOR [1]; listed as SUSM 524): agonist; Ki (α2A adrenergic receptor; Table A4, data summary #2, read-out: Alpha2A Ki ± SEM): > 10000 nM; Ki (hDOR; Table A4, data summary #2, read-out: DOR Ki ± SEM): 802 ± 212 nM; potency at MOR relative to SUSM-501 (hMOR [4]): 4 fold |
